# In patent US20110226998A1, “ELECTROWETTING ELEMENTS” (LIQUAVISTA B.V., priority 2008, published 2011):
# Experiment: Photo-bleaching test according to standard IEC 60068-2-9, Atlas Suntest CPS/XLS+ instrument, reflectance measurement
# Format: physicochemical
# Conditions: sample thickness 4 micrometres, 1 centimetre diameter, 0.1M in decane; exposure 0, 4, 24, 48, 120 and 240 hours
# Excerpt: Exemplary dye compounds will now be described below, including a schematic illustration of each dye. Whilst exemplary anthraquinone dyes are given below, it is to be appreciated that corresponding napthoquinone dyes are envisaged also within the scope of the present invention, namely including napthoquinones having the same molecular structure of the right hand (as illustrated herein) benzene ring as the molecular structure of the right hand (as illustrated herein) benzene ring of the anthrquinone examples described below. The stereochemistry of each dye is not limited to that shown; it is to be appreciated that molecular structures of the dyes having different stereochemistry are within the scope of the dyes of the invention. […] For each of the exemplary dyes, data is given as evidence of their reduced photo-bleaching properties. […] The periods of time given for testing are scalable to equate to a number of weeks of exposing the tested dyes to solar radiation. For example, the period of exposure of 240 hours given below approximately equates to continuously exposing the dyes to solar radiation in London, UK, for 14 weeks, taking an average yearly solar radiation quantity as 1,000 kWh/m^2/year. In reality, taking into account that a display application is not used or is used inside for a major part of the time, this equates to a few years of practical lifetime.
# (§1) This dye is cyan in colour. Upon testing, a sample of the dye with a thickness of 4 micrometres, a circular area of 1 centimetre diameter and a concentration of 0.1M in decane, was measured for reflectance of radiation with wavelengths from 380 to 750 nano-metres, at 5 nano-metre increments. This test was run separately for different time periods, namely for 0, 4, 24, 48, 120 and 240 hours. The reflectance of the dye for the range of wavelengths tested was approximately the same for each different testing time period.
# as §1, with “purple” for “cyan”, “48, and” for “48,”, “120” for “120 and 240”
# as §1, with “magenta” for “cyan”
# as §1, with “blue” for “cyan”, “48, and” for “48,”, “120” for “120 and 240”
# as §1, with “blue/cyan” for “cyan”, “48, and” for “48,”, “120” for “120 and 240”
row,"photo-bleaching (reflectance of radiation, 380 to 750 nano-metres, compared over testing time periods)",SMILES
1,does not exhibit photo-bleaching,CCCCC(CC)CNc1ccc(NCC(CC)CCCC)c2c1C(=O)c1ccccc1C2=O (stereo not drawn) [Example 1]
2,does not exhibit photo-bleaching,CCCCC(CC)Cc1cc(NC2CCCCC2)c2c(c1NC1CCCCC1)C(=O)c1ccccc1C2=O (stereo not drawn) [Example 3]
3,does not exhibit photo-bleaching,CCCCCCCc1cc(NC2CCCCC2)c2c(c1NC1CCCCC1)C(=O)c1ccccc1C2=O [Example 4]

# Same assay, conditions: sample thickness 4 micrometres, 1 centimetre diameter, 0.1M in decane; exposure 0, 4, 24, 48, and 120 hours
row,"photo-bleaching (reflectance of radiation, 380 to 750 nano-metres, compared over testing time periods)",SMILES
1,does not exhibit photo-bleaching,CCCCC(CC)CNc1cc(CC(CC)CCCC)c(O)c2c1C(=O)c1ccccc1C2=O (stereo not drawn) [Example 2]
2,does not exhibit photo-bleaching,CCCCC(CC)CNc1cc(CC(CC)CCCC)c(N)c2c1C(=O)c1ccccc1C2=O (stereo not drawn) [Example 5]
3,does not exhibit photo-bleaching,CCCCC(CC)CNc1cc2c(c3c1C(=O)c1ccccc1C3=O)NC1CC(C)CCC1C2(C)C (stereo not drawn) [Example 6]
